Reference: the NIST ThermoML archive (doi:10.1021/je900442b)
± gives the expanded uncertainty stated by the source.

Legend:
[1] = xn = mol fraction of the nth substance listed; details: 101 kPa, Liquid
[2] = 101 kPa, Liquid

Structure (SMILES): CC(=O)OC(C)(C)C [1,1-dimethylethyl ethanoate] + CO
- mass density ([1]; 298.15 K, x1 = 0.1004): 806.42 ± 0.87 kg/m3
- speed of sound ([1]; 298.15 K, x1 = 0.1004): 1107 ± 4 m/s
- mass density ([1]; 298.15 K, x1 = 0.1997): 819.95 ± 0.89 kg/m3
- speed of sound ([1]; 298.15 K, x1 = 0.1997): 1105 ± 4 m/s
- mass density ([1]; 298.15 K, x1 = 0.2996): 829.79 ± 0.9 kg/m3
- speed of sound ([1]; 298.15 K, x1 = 0.2996): 1105 ± 4 m/s
- mass density ([1]; 298.15 K, x1 = 0.3916): 836.73 ± 0.91 kg/m3
- speed of sound ([1]; 298.15 K, x1 = 0.3916): 1104 ± 4 m/s
- mass density ([1]; 298.15 K, x1 = 0.5003): 843.12 ± 0.92 kg/m3
- speed of sound ([1]; 298.15 K, x1 = 0.5003): 1103 ± 4 m/s
- mass density ([1]; 298.15 K, x1 = 0.5988): 847.72 ± 0.93 kg/m3
- speed of sound ([1]; 298.15 K, x1 = 0.5988): 1102 ± 4 m/s
- mass density ([1]; 298.15 K, x1 = 0.6994): 851.57 ± 0.94 kg/m3
- speed of sound ([1]; 298.15 K, x1 = 0.6994): 1100 ± 4 m/s
- mass density ([1]; 298.15 K, x1 = 0.7985): 854.72 ± 0.94 kg/m3
- speed of sound ([1]; 298.15 K, x1 = 0.7985): 1097 ± 4 m/s
- mass density ([1]; 298.15 K, x1 = 0.8992): 857.43 ± 0.95 kg/m3
- speed of sound ([1]; 298.15 K, x1 = 0.8992): 1094 ± 4 m/s
- mass density ([1]; 298.15 K, x1 = 1): 859.75 ± 0.95 kg/m3
- speed of sound ([1]; 298.15 K, x1 = 1): 1091 ± 4 m/s
- mass density ([1]; 303.15 K, x1 = 0.1004): 801.36 ± 0.91 kg/m3
- speed of sound ([1]; 303.15 K, x1 = 0.1004): 1090 ± 4 m/s
- mass density ([1]; 303.15 K, x1 = 0.1997): 814.66 ± 0.93 kg/m3
- speed of sound ([1]; 303.15 K, x1 = 0.1997): 1089 ± 4 m/s
- mass density ([1]; 303.15 K, x1 = 0.2996): 824.37 ± 0.94 kg/m3
- speed of sound ([1]; 303.15 K, x1 = 0.2996): 1089 ± 4 m/s
- mass density ([1]; 303.15 K, x1 = 0.3916): 831.21 ± 0.95 kg/m3
- speed of sound ([1]; 303.15 K, x1 = 0.3916): 1088 ± 4 m/s
- mass density ([1]; 303.15 K, x1 = 0.5003): 837.52 ± 0.96 kg/m3
- speed of sound ([1]; 303.15 K, x1 = 0.5003): 1087 ± 4 m/s
- mass density ([1]; 303.15 K, x1 = 0.5988): 842.05 ± 0.97 kg/m3
- speed of sound ([1]; 303.15 K, x1 = 0.5988): 1086 ± 4 m/s
- mass density ([1]; 303.15 K, x1 = 0.6994): 845.85 ± 0.97 kg/m3
- speed of sound ([1]; 303.15 K, x1 = 0.6994): 1085 ± 4 m/s
- mass density ([1]; 303.15 K, x1 = 0.7985): 848.96 ± 0.98 kg/m3
- speed of sound ([1]; 303.15 K, x1 = 0.7985): 1083 ± 4 m/s
- mass density ([1]; 303.15 K, x1 = 0.8992): 851.65 ± 0.98 kg/m3
- speed of sound ([1]; 303.15 K, x1 = 0.8992): 1080 ± 4 m/s
- mass density ([1]; 303.15 K, x1 = 1): 853.94 ± 0.99 kg/m3
- speed of sound ([1]; 303.15 K, x1 = 1): 1078 ± 4 m/s
- mass density ([1]; 308.15 K, x1 = 0.1004): 796.06 ± 0.94 kg/m3
- speed of sound ([1]; 308.15 K, x1 = 0.1004): 1069 ± 4 m/s
- mass density ([1]; 308.15 K, x1 = 0.1997): 809.27 ± 0.96 kg/m3
- speed of sound ([1]; 308.15 K, x1 = 0.1997): 1065 ± 4 m/s
- mass density ([1]; 308.15 K, x1 = 0.2996): 818.91 ± 0.98 kg/m3
- speed of sound ([1]; 308.15 K, x1 = 0.2996): 1063 ± 4 m/s
- mass density ([1]; 308.15 K, x1 = 0.3916): 825.7 ± 0.99 kg/m3
- speed of sound ([1]; 308.15 K, x1 = 0.3916): 1061 ± 4 m/s
- mass density ([1]; 308.15 K, x1 = 0.5003): 831.98 ± 1 kg/m3
- speed of sound ([1]; 308.15 K, x1 = 0.5003): 1059 ± 4 m/s
- mass density ([1]; 308.15 K, x1 = 0.5988): 836.48 ± 1 kg/m3
- speed of sound ([1]; 308.15 K, x1 = 0.5988): 1057 ± 4 m/s
- mass density ([1]; 308.15 K, x1 = 0.6994): 840.26 ± 1 kg/m3
- speed of sound ([1]; 308.15 K, x1 = 0.6994): 1055 ± 4 m/s
- mass density ([1]; 308.15 K, x1 = 0.7985): 843.36 ± 1 kg/m3
- speed of sound ([1]; 308.15 K, x1 = 0.7985): 1053 ± 4 m/s
- mass density ([1]; 308.15 K, x1 = 0.8992): 846.04 ± 1 kg/m3
- speed of sound ([1]; 308.15 K, x1 = 0.8992): 1051 ± 4 m/s
- mass density ([1]; 308.15 K, x1 = 1): 848.34 ± 1 kg/m3
- speed of sound ([1]; 308.15 K, x1 = 1): 1049 ± 4 m/s
- mass density ([1]; 313.15 K, x1 = 0.1004): 791.34 ± 0.98 kg/m3
- speed of sound ([1]; 313.15 K, x1 = 0.1004): 1055 ± 4 m/s
- mass density ([1]; 313.15 K, x1 = 0.1997): 804.29 ± 1 kg/m3
- speed of sound ([1]; 313.15 K, x1 = 0.1997): 1052 ± 4 m/s
- mass density ([1]; 313.15 K, x1 = 0.2996): 813.75 ± 1 kg/m3
- speed of sound ([1]; 313.15 K, x1 = 0.2996): 1051 ± 4 m/s
- mass density ([1]; 313.15 K, x1 = 0.3916): 820.41 ± 1 kg/m3
- speed of sound ([1]; 313.15 K, x1 = 0.3916): 1049 ± 4 m/s
- mass density ([1]; 313.15 K, x1 = 0.5003): 826.57 ± 1 kg/m3
- speed of sound ([1]; 313.15 K, x1 = 0.5003): 1048 ± 4 m/s
- mass density ([1]; 313.15 K, x1 = 0.5988): 831 ± 1 kg/m3
- speed of sound ([1]; 313.15 K, x1 = 0.5988): 1046 ± 4 m/s
- mass density ([1]; 313.15 K, x1 = 0.6994): 834.72 ± 1.1 kg/m3
- speed of sound ([1]; 313.15 K, x1 = 0.6994): 1045 ± 4 m/s
- mass density ([1]; 313.15 K, x1 = 0.7985): 837.77 ± 1.1 kg/m3
- speed of sound ([1]; 313.15 K, x1 = 0.7985): 1043 ± 4 m/s
- mass density ([1]; 313.15 K, x1 = 0.8992): 840.4 ± 1.1 kg/m3
- speed of sound ([1]; 313.15 K, x1 = 0.8992): 1041 ± 4 m/s
- mass density ([1]; 313.15 K, x1 = 1): 842.67 ± 1.1 kg/m3
- speed of sound ([1]; 313.15 K, x1 = 1): 1040 ± 4 m/s

Structure (SMILES): CO [methanol]
- mass density ([2]; 298.15 K): 786.38 ± 0.84 kg/m3
- speed of sound ([2]; 298.15 K): 1109 ± 4 m/s
- mass density ([2]; 303.15 K): 781.65 ± 0.87 kg/m3
- speed of sound ([2]; 303.15 K): 1092 ± 4 m/s
- mass density ([2]; 308.15 K): 776.52 ± 0.91 kg/m3
- speed of sound ([2]; 308.15 K): 1074 ± 4 m/s
- mass density ([2]; 313.15 K): 772.15 ± 0.95 kg/m3
- speed of sound ([2]; 313.15 K): 1060 ± 4 m/s

Structure (SMILES): CCCCOC(C)=O [butyl ethanoate]
- mass density ([2]; 298.15 K): 876.18 ± 0.86 kg/m3
- speed of sound ([2]; 298.15 K): 1190 ± 4 m/s
- mass density ([2]; 303.15 K): 871.27 ± 0.9 kg/m3
- speed of sound ([2]; 303.15 K): 1173 ± 4 m/s
- mass density ([2]; 308.15 K): 865.41 ± 0.94 kg/m3
- speed of sound ([2]; 308.15 K): 1150 ± 4 m/s
- mass density ([2]; 313.15 K): 860.46 ± 0.98 kg/m3
- speed of sound ([2]; 313.15 K): 1131 ± 4 m/s

Structure (SMILES): CO [methanol] + CC(=O)OC(C)(C)C
- mass density ([1]; 298.15 K, x2 = 0): 786.38 ± 0.84 kg/m3
- speed of sound ([1]; 298.15 K, x2 = 0): 1109 ± 4 m/s
- mass density ([1]; 303.15 K, x2 = 0): 781.65 ± 0.87 kg/m3
- speed of sound ([1]; 303.15 K, x2 = 0): 1092 ± 4 m/s
- mass density ([1]; 308.15 K, x2 = 0): 776.52 ± 0.91 kg/m3
- speed of sound ([1]; 308.15 K, x2 = 0): 1074 ± 4 m/s
- mass density ([1]; 313.15 K, x2 = 0): 772.15 ± 0.95 kg/m3
- speed of sound ([1]; 313.15 K, x2 = 0): 1060 ± 4 m/s
